Laboratory results reported in patent US20180111893A1, “POLYCATIONIC AMPHIPHILES AND POLYMERS THEREOF AS ANTIMICROBIAL AGENTS AND METHODS USING SAME” (Temple University-Of The Commonwealth System of Higher …, priority 2015, published 2018).

How the values were obtained:
Assay in all cases: Minimum inhibitory concentration (MIC)
Type in all cases: cell-based
[1] = system: community-acquired methicillin-resistant Staphylococcus aureus CA-MRSA (USA300-0114); details: for MIC CA-MRSA: Table 6; for potency against CA-MRSA: dye-based monoQACs; for difference in MIC of monoQAC versus triscationic analog against CA-MRSA: monocationic n,0,0 vs triscationic n,1,1
Procedure: (§1) As used herein, the term “minimum inhibitory concentration (MIC)” refers to the lowest concentration of an antimicrobial agent that will inhibit the visible growth of a microorganism after overnight incubation. MIC values against bacteria, for example, the Gram-positive Staphylococcus aureus and Enterococcus faecalis and the Gram-negative Escherichia coli and Pseudomonas aeruginosa were determined by standard methods. See also P. A. Wayne, Methods for Dilution Antimicrobial Tests for Bacteria that Grow Aerobically; Approved Standard, Ninth Edition, 2012, CLSI Document M07-A9, Vol. 32 No. 2, which is incorporated by reference herein in its entirety.
(§2) Compounds were serially diluted two-fold from a 10% DMSO/aqueous stock solution to yield twelve test concentrations. Overnight S. aureus, E. faecalis, E. coli, P. aeruginosa, CA-MRSA, and HA-MRSA cultures diluted to ca. 10^6 cfu/mL in Mueller-Hinton media and 100 μL were inoculated into each well of a U-bottom 96-well plate (BD Biosciences, BD351177) containing 100 μL of compound solution. Plates were incubated statically at 37° C. for 72 hours upon which time wells were evaluated visually for bacterial growth. The MIC was determined as the lowest concentration of compound resulting in no bacterial growth visible to the naked eye, based on the majority of three independent experiments. Positive and negative DMSO/aqueous solution and media controls were conducted for each trial. See Peng et al., 2011, Chem. Comm. 47:4896-4898.
as §2, with “trial.” for “trial. See Peng et al., 2011, Chem. Comm. 47:4896-4898.”

[2] = system: Staphylococcus aureus (SA; MSSA SH1000); details: Table 6
Procedure: as §1, §2
as §2, with “trial.” for “trial. See Peng et al., 2011, Chem. Comm. 47:4896-4898.”

[3] = system: Escherichia coli (MC4100); details: Table 6
Procedure: as §1, §2
as §2, with “trial.” for “trial. See Peng et al., 2011, Chem. Comm. 47:4896-4898.”

[4] = system: Enterococcus faecalis (OG1RF); details: Table 6
Procedure: as §1, §2
as §2, with “trial.” for “trial. See Peng et al., 2011, Chem. Comm. 47:4896-4898.”

[5] = system: hospital-acquired methicillin-resistant Staphylococcus aureus HA-MRSA (ATCC 33591); details: Table 6
Procedure: as §1, §2
as §2, with “trial.” for “trial. See Peng et al., 2011, Chem. Comm. 47:4896-4898.”

[6] = system: Pseudomonas aeruginosa (PAO1); details: Table 6
Procedure: as §1, §2
as §2, with “trial.” for “trial. See Peng et al., 2011, Chem. Comm. 47:4896-4898.”

Row | SMILES | MIC CA-MRSA [1] | MIC SA [2] | MIC EC [3] | MIC EF [4] | MIC HA-MRSA [5] | MIC PA [6] | potency against CA-MRSA ([1]; in words) | increase in MIC against CA-MRSA compared to SA ([1]; dye-based QACs, bacteria with vs without efflux pumps) | MIC against CA-MRSA ([1]; dye-based QACs) | difference in MIC/activity between SA and CA-MRSA ([1]; dye-based QACs, in words) | difference in MIC of monoQAC versus triscationic analog against CA-MRSA [1]
1 | CCCCCCCCCCCCC[N+](C)(C)CCCN(CCC[N+](C)(C)CCCCCCCCCCCCC)CCC[N+](C)(C)CCCCCCCCCCCCC [sT-13,13,13,0] | 0.5 µM | 1 µM | 1 µM | 1 µM | 1 µM | 8 µM | – | – | – | – | –
2 | CCCCCCCCCC[N+](C)(C)c1ccc(C(c2ccccc2)c2ccc(N(C)C)cc2)cc1 (centres unmarked) [LMG-10,0] | – | – | – | – | – | – | quite potent | – | – | – | –
3 | CCCCCCCCCCCCCCCC[N+](C)(C)CCCN(CCC[N+](C)(C)CCCCCCCCCCCCCCCC)CCC[N+](C)(C)CCCCCCCCCCCCCCCC.[Br-].[Br-].[Br-] [sT-16,16,16,0] | 4 µM | 8 µM | 16 µM | 16 µM | 16 µM | 32 µM | – | – | – | – | –
4 | CCCCCCCCCCCC[N+](C)(C)CCC[N+](C)(CCC[N+](C)(C)CCCCCCCCCCCC)CCC[N+](C)(C)CCCCCCCCCCCC [sT-12,12,12,1] | 0.5 µM | 1 µM | 1 µM | 1 µM | 2 µM | 4 µM | – | – | – | – | –
5 | CCCCCCCCCCCC[N+](C)(C)CCC[N+](CCC[N+](C)(C)CCCCCCCCCCCC)(CCC[N+](C)(C)CCCCCCCCCCCC)Cc1ccccc1 [sT-12,12,12,Bn] | 0.5 µM | 1 µM | 0.5 µM | 0.5 µM | 0.5 µM | 2 µM | – | – | – | – | –
6 | C=CC[N+](CCC[N+](C)(C)CCCCCCCCCC)(CCC[N+](C)(C)CCCCCCCCCC)CCC[N+](C)(C)CCCCCCCCCC [sT-10,10,10,3A] | 0.25 µM | 0.5 µM | 0.5 µM | 0.5 µM | 0.5 µM | 1 µM | – | – | – | – | –
7 | CCCCCCCCCC[N+](C)(C)CCC[N+](C)(CCC[N+](C)(C)CCCCCCCCCC)CCC[N+](C)(C)CCCCCCCCCC [sT-10,10,10,1] | 0.5 µM | 0.5 µM | 0.5 µM | 0.5 µM | 0.5 µM | 2 µM | – | – | – | – | –
8 | C=CC[N+](CCC[N+](C)(C)CCCCCCCCCCCCCCCC)(CCC[N+](C)(C)CCCCCCCCCCCCCCCC)CCC[N+](C)(C)CCCCCCCCCCCCCCCC [sT-16,16,16,3A] | 4 µM | 4 µM | 16 µM | 8 µM | 16 µM | 63 µM | – | – | – | – | –
9 | CCCCCCCCCCC[N+](C)(C)c1ccc(C(c2ccccc2)c2ccc(N(C)C)cc2)cc1 (centres unmarked) [LMG-11,0] | – | – | – | – | – | – | quite potent | – | – | – | –
10 | CCCCCCCCCCC[N+](C)(C)CCC[N+](CCC[N+](C)(C)CCCCCCCCCCC)(CCC[N+](C)(C)CCCCCCCCCCC)Cc1ccccc1 [sT-11,11,11,Bn] | ≤0.25 µM | 0.25 µM | 0.5 µM | 0.5 µM | ≤0.25 µM | 1 µM | – | – | – | – | –
11 | CCCCCCCCCC[N+](C)(C)c1ccc(C(c2ccc([N+](C)(C)C)cc2)c2ccc([N+](C)(C)C)cc2)cc1 [LCV-10,1,1] | – | – | – | – | – | – | – | 32 fold | – | – | –
12 | C=CC[N+](CCC[N+](C)(C)CCCCCCCCCCCC)(CCC[N+](C)(C)CCCCCCCCCCCC)CCC[N+](C)(C)CCCCCCCCCCCC [sT-12,12,12,3A] | ≤0.25 µM | 1 µM | 0.5 µM | 0.5 µM | 0.5 µM | 2 µM | – | – | – | – | –
13 | CCCCCCCC[N+](C)(C)CCC[N+](C)(CCC[N+](C)(C)CCCCCCCC)CCC[N+](C)(C)CCCCCCCC [sT-8,8,8,1] | 1 µM | 0.5 µM | 4 µM | 16 µM | 16 µM | 250 µM | – | – | – | – | –
14 | C=CC[N+](CCC[N+](C)(C)CCCCCCCC)(CCC[N+](C)(C)CCCCCCCC)CCC[N+](C)(C)CCCCCCCC [sT-8,8,8,3A] | 1 µM | 1 µM | 4 µM | 16 µM | 8 µM | 125 µM | – | – | – | – | –
15 | CCCCCCCCCCCC[N+](C)(C)CCCN(CCC[N+](C)(C)CCCCCCCCCCCC)CCC[N+](C)(C)CCCCCCCCCCCC [sT-12,12,12,0] | 0.5 µM | 0.5 µM | 1 µM | 1 µM | 1 µM | 4 µM | – | – | – | – | –
16 | CCCCCCCCCCCCCCCC[N+](CC)(CC)c1ccc(N(c2ccc([N+](C)(CC)CC)cc2)c2ccc([N+](C)(CC)CC)cc2)cc1 [TET-16,1,1] | – | – | – | – | – | – | – | – | 0.5 µM | no difference in activity | –
17 | CCCCCCCCCC[N+](C)(C)CCCN(CCC[N+](C)(C)CCCCCCCCCC)CCC[N+](C)(C)CCCCCCCCCC [sT-10,10,10,0] | 0.5 µM | 0.5 µM | 1 µM | 0.5 µM | 0.5 µM | 2 µM | – | – | – | – | –
18 | CCCCCCCCCCCCCC[N+](C)(C)CCC[N+](C)(CCC[N+](C)(C)CCCCCCCCCCCCCC)CCC[N+](C)(C)CCCCCCCCCCCCCC [sT-14,14,14,1] | 2 µM | 4 µM | 4 µM | 2 µM | 2 µM | 32 µM | – | – | – | – | –
19 | C=CC[N+](CCC[N+](C)(C)CCCCCCCCCCCCC)(CCC[N+](C)(C)CCCCCCCCCCCCC)CCC[N+](C)(C)CCCCCCCCCCCCC [sT-13,13,13,3A] | 1 µM | 2 µM | 1 µM | 1 µM | 1 µM | 4 µM | – | – | – | – | –
20 | CCCCCCCCCCCCCC[N+](C)(C)CCCN(CCC[N+](C)(C)CCCCCCCCCCCCCC)CCC[N+](C)(C)CCCCCCCCCCCCCC [sT-14,14,14,0] | 0.5 µM | 1 µM | 4 µM | 2 µM | 2 µM | 16 µM | – | – | – | – | –
21 | CCCCCCCCCCCCC[N+](C)(C)CCC[N+](C)(CCC[N+](C)(C)CCCCCCCCCCCCC)CCC[N+](C)(C)CCCCCCCCCCCCC [sT-13,13,13,1] | 0.5 µM | 2 µM | 1 µM | 1 µM | 1 µM | 4 µM | – | – | – | – | –
22 | CCCCCCCC[N+](C)(C)CCCN(CCC[N+](C)(C)CCCCCCCC)CCC[N+](C)(C)CCCCCCCC [sT-8,8,8,0] | 2 µM | 4 µM | 32 µM | 32 µM | 32 µM | 125 µM | – | – | – | – | –
23 | CCCCCCCCCCCCCCCCCC[N+](C)(C)CCCN(CCC[N+](C)(C)CCCCCCCCCCCCCCCCCC)CCC[N+](C)(C)CCCCCCCCCCCCCCCCCC [sT-18,18,18,0] | 4 µM | 8 µM | 32 µM | 16 µM | 32 µM | 63 µM | – | – | – | – | –
24 | C=CC[N+](CCC[N+](C)(C)CCCCCCCCCCCCCC)(CCC[N+](C)(C)CCCCCCCCCCCCCC)CCC[N+](C)(C)CCCCCCCCCCCCCC [sT-14,14,14,3A] | 2 µM | 2 µM | 4 µM | 2 µM | 2 µM | 32 µM | – | – | – | – | –
25 | CCCCCCCCCCCCCCCC[N+](CC)(CC)c1ccc(N(c2ccc(N(CC)CC)cc2)c2ccc(N(CC)CC)cc2)cc1 [TET-16,0,0] | – | – | – | – | – | – | – | – | 250 µM | – | 500 ×
26 | C=CC[N+](CCC[N+](C)(C)CCCCCCCCCCCCCCCCCC)(CCC[N+](C)(C)CCCCCCCCCCCCCCCCCC)CCC[N+](C)(C)CCCCCCCCCCCCCCCCCC [sT-18,18,18,3A] | 2 µM | 2 µM | 32 µM | 32 µM | 16 µM | 125 µM | – | – | – | – | –
27 | CCCCCCCCCCCCCCCCCC[N+](C)(C)c1ccc(C(c2ccc(N(C)C)cc2)c2ccc(N(C)C)cc2)cc1 [LCV-18,0,0] | – | – | – | – | – | – | – | – | – | – | same differential
